Results from PubChem BioAssay AID1845202 (Molecular Pharmacology Branch, DTP, NCI, 2023).
Values joined by “and” are separate entries in the source; they are usually repeats but may differ in a detail not shown here. Equal entries are not always repeated.

System: DMS 114 tumor spheroids, viability % test/control
Test: Anticancer human tumor DMS 114 cell line growth inhibition;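 also: spheroids exposed to compounds for 7 days before read-out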;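 as to viability, T/C: luminescence used as a proxy for viable cells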
Conditions: spheroids with HUVEC and MSC; for viability, T/C: stronger effect = lower value
How it was run: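 Single agents and combinations were tested on spheroids built from tumor cells plus HUVEC and hMSC, at half-log dilutions starting at or near clinical Cmax, else 10 microM; final DMSO 0.25% (v/v).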

Compound `O=C(c1cc(Cc2n[nH]c(=O)c3ccccc23)ccc1F)N1CCN(C(=O)C2CC2)CC1` + COc1cc2c(cc1O)CCNC21CSC2c3c(OC(C)=O)c(C)c4c(c3C(COC1=O)N1C(O)C3Cc5cc(C)c(OC)c(O)c5C(C21)N3C)OCO4 has an IC50 (curve of first compound, second compound 30 pM) of 5.54 µM, an IC50 (curve of first compound, second compound 94.9 pM) of 3.67 µM and an IC50 (curve of first compound, second compound 0.0003 µM) of under 0.0949 µM. The IC50 (curve of first compound, second compound 0.000949 µM) was under 0.0949 µM, the IC50 (curve of first compound, second compound 0.003 µM) was under 0.0949 µM and the viability, T/C (second compound 30 pM, first compound 0.0949 µM) was 106%. The viability, T/C (second compound 30 pM, first compound 0.3 µM) was 103%, the viability, T/C (second compound 30 pM, first compound 0.949 µM) was 97.1% and the viability, T/C (second compound 30 pM, first compound 3 µM) was 83.8%. For the same compound, the viability, T/C (second compound 30 pM, first compound 9.49 µM) was 20.2%, the viability, T/C (second compound 30 pM, first compound 30 µM) was 17.4% and the viability, T/C (second compound 94.9 pM, first compound 0.0949 µM) was 92.3%. The viability, T/C (second compound 94.9 pM, first compound 0.3 µM) was 94.6%, the viability, T/C (second compound 94.9 pM, first compound 0.949 µM) was 88.1% and the viability, T/C (second compound 94.9 pM, first compound 3 µM) was 57.2%. It also gave a viability, T/C (second compound 94.9 pM, first compound 9.49 µM) of 17.3%, a viability, T/C (second compound 94.9 pM, first compound 30 µM) of 13.7% and a viability, T/C (second compound 0.0003 µM, first compound 0.0949 µM) of 29.5%. It also gave a viability, T/C (second compound 0.0003 µM, first compound 0.3 µM) of 21.9%, a viability, T/C (second compound 0.0003 µM, first compound 0.949 µM) of 23.2% and a viability, T/C (second compound 0.0003 µM, first compound 3 µM) of 14.8%. It also gave a viability, T/C (second compound 0.0003 µM, first compound 9.49 µM) of 7.77%, a viability, T/C (second compound 0.0003 µM, first compound 30 µM) of 7.92% and a viability, T/C (second compound 0.000949 µM, first compound 0.0949 µM) of 3.19%. For the same compound, the viability, T/C (second compound 0.000949 µM, first compound 0.3 µM) was 2.4%, the viability, T/C (second compound 0.000949 µM, first compound 0.949 µM) was 2.21% and the viability, T/C (second compound 0.000949 µM, first compound 3 µM) was 2.86%. It also gave a viability, T/C (second compound 0.000949 µM, first compound 9.49 µM) of 1.24%, a viability, T/C (second compound 0.000949 µM, first compound 30 µM) of 0.5% and a viability, T/C (second compound 0.003 µM, first compound 0.0949 µM) of 0.24%. It also gave a viability, T/C (second compound 0.003 µM, first compound 0.3 µM) of 0.22%, a viability, T/C (second compound 0.003 µM, first compound 0.949 µM) of 0.19% and a viability, T/C (second compound 0.003 µM, first compound 3 µM) of 0.2%. The viability, T/C (second compound 0.003 µM, first compound 9.49 µM) was 0.19% and the viability, T/C (second compound 0.003 µM, first compound 30 µM) was 0.4%.

With `COc1cc(C)[nH]c(=O)c1CN1CCc2c(Cl)cc(C(OC)C3COC3)c(Cl)c2C1=O` (configuration not stated) + Cn1nnc2c(C(N)=O)ncn2c1=O the IC50 (curve of first compound, second compound 1 µM) was over 10 µM, the IC50 (curve of first compound, second compound 3.16 µM) was over 10 µM and the IC50 (curve of first compound, second compound 10 µM) was over 10 µM. It also gave an IC50 (curve of first compound, second compound 31.6 µM) of over 10 µM, an IC50 (curve of first compound, second compound 100 µM) of over 10 µM and a viability, T/C (second compound 1 µM, first compound 0.0316 µM) of 103%. It also gave a viability, T/C (second compound 1 µM, first compound 0.1 µM) of 93.3%, a viability, T/C (second compound 1 µM, first compound 0.316 µM) of 82.7% and a viability, T/C (second compound 1 µM, first compound 1 µM) of 78.4%. For the same compound, the viability, T/C (second compound 1 µM, first compound 3.16 µM) was 73%, the viability, T/C (second compound 1 µM, first compound 10 µM) was 71% and the viability, T/C (second compound 3.16 µM, first compound 0.0316 µM) was 109%. For the same compound, the viability, T/C (second compound 3.16 µM, first compound 0.1 µM) was 97.1%, the viability, T/C (second compound 3.16 µM, first compound 0.316 µM) was 91% and the viability, T/C (second compound 3.16 µM, first compound 1 µM) was 82.3%. It also gave a viability, T/C (second compound 3.16 µM, first compound 3.16 µM) of 76.5%, a viability, T/C (second compound 3.16 µM, first compound 10 µM) of 71.7% and a viability, T/C (second compound 10 µM, first compound 0.0316 µM) of 115%. The viability, T/C (second compound 10 µM, first compound 0.1 µM) was 99.5%, the viability, T/C (second compound 10 µM, first compound 0.316 µM) was 93.1% and the viability, T/C (second compound 10 µM, first compound 1 µM) was 82%. The viability, T/C (second compound 10 µM, first compound 3.16 µM) was 80.5%, the viability, T/C (second compound 10 µM, first compound 10 µM) was 70.1% and the viability, T/C (second compound 31.6 µM, first compound 0.0316 µM) was 102%. For the same compound, the viability, T/C (second compound 31.6 µM, first compound 0.1 µM) was 103%, the viability, T/C (second compound 31.6 µM, first compound 0.316 µM) was 86.5% and the viability, T/C (second compound 31.6 µM, first compound 1 µM) was 84.2%. It also gave a viability, T/C (second compound 31.6 µM, first compound 3.16 µM) of 70.1%, a viability, T/C (second compound 31.6 µM, first compound 10 µM) of 67.5% and a viability, T/C (second compound 100 µM, first compound 0.0316 µM) of 90.7%. For the same compound, the viability, T/C (second compound 100 µM, first compound 0.1 µM) was 95.6%, the viability, T/C (second compound 100 µM, first compound 0.316 µM) was 73.3% and the viability, T/C (second compound 100 µM, first compound 1 µM) was 64.3%. It also gave a viability, T/C (second compound 100 µM, first compound 3.16 µM) of 61.2% and a viability, T/C (second compound 100 µM, first compound 10 µM) of 57.1%.

In the case of `Cc1cc(C)c(CNC(=O)c2cc(-c3ccc(CN4CCOCC4)cc3)cc3c2cnn3C2CCCC2)c(=O)[nH]1`, the viability, T/C (compound 0.0316 µM) is reported as 99.2% and 94.7% and 96.4%, the viability, T/C (compound 0.1 µM) is reported as 104% and 96.8% and 102% and the viability, T/C (compound 0.316 µM) is reported as 103% and 113% and 108%. For the same compound, the viability, T/C (compound 1 µM) was 116% and 115% (2×), the viability, T/C (compound 3.16 µM) was 106% and 110% and 103% and the viability, T/C (compound 10 µM) was 62.3% and 78% and 72.8%. For the same compound, the IC50 (curve of compound) was over 10 µM.
